Measured values published in patent US20050282755A1, “Compositions having antimicrobial activity and uses thereof” (priority 2004, published 2005).
In brackets after ≈: the same amount, converted by molar mass.

Key:
S. aureus (Rosenbach) = assay: Broth microdilution assay for MIC (20% TSB, 50 mM Na2CO3, 1 mM MgCl2), Table 4A; assay type: cell-based, Staphylococcus aureus; conditions: 3 log or greater reduction in bacterial growth over 16 hours
Experimental: (§1) S. dublin (Lane), S. aureus (Rosenbach), P. acnes, ATCC 6919, E. coli K12 TOP10, and E. coli K12 55099 (protease neg.) bacterial strains were tested in the microbial inhibition assays described hereafter. The S. dublin (Lane), and S. aureus (Rosenbach) strains are available from ATCC (Staphylococcus aureus subsp. aureus Rosenbach (Number: 13150) and Salmonella choleraesuis serotype dublin (Number: 39184)). The strain of P. acnes was purchased from ATCC (strain #6919) (Manassas, Va.). The E. coli K12 strains TOP 10 and 55099 were purchased from Invitrogen (Carlsbad, Calif.) and ATCC respectively. HeLa cells were purchased from ATCC (CCL2). Tryptic soy broth (TSB), Brucella broth, reinforced Clostridial broth and agar were purchased from Becton & Dickinson (distributed by VWR, West Chester, Pa.). All plastic consumables were purchased from VWR (West Chester, Pa.). […]
(§2) The minimum inhibitory concentration (MIC) of peptide compositions for S. aureus, S. dublin and E. coli was determined in a broth microdilution assay. […] The MIC for each peptide for each microorganism was determined by three methods. The growth of bacteria was directly determined by measuring the absorption at 600 nm using a Versamax microplate reader (Molecular Devices). […] After incubation for 16 hours at 37° C. bacterial growth was evaluated and documented (Alpha Innotech gel documentation system).

S. dublin (Lane) = assay: Broth microdilution assay for MIC, Table 4A; assay type: cell-based, Salmonella dublin; conditions: 3 log or greater reduction in bacterial growth over 16 hours
Experimental: as §1, §2

[1] = system: indigenous bacteria in human sebum; assay: Human sebum assay, bactericidal activity; assay type: cell-based; conditions: 250 Micromolar peptide, 150 minutes at 37° C; none: 8500000
Experimental: Sebum was harvested from healthy human volunteers using Biore® deep cleansing pore strips. The seburn plugs were collected in a microtube with a tweezer. […] The seburn was resusupended in 1% TSB, 10 mM Na2HPO4 into fine particulate suspension. The assay was performed in a total volume of 50 microliters. […] The samples were incubated for 150 minutes at 37° C. To determine the number of viable bacteria, a serial dilution was prepared (10 fold dilutions to 1/100000). […] After incubation for 72 hours bacterial growth was documented (Alpha Innotech documentation system). The number of CFU/milliliter was determined by counting bacteria colonies. The efficacy of a peptide is indicated by the reduction of CFU/milliliter compared to the untreated control.

Jurkat cells = assay type: cell-based; conditions: 16 h
Experimental: Toxicity of peptide compositions for mammalian cells was determined by using a metabolic viability assay. For this assay 4×10^5 HeLa cells were seeded per well into a microwell plate (50 microliters volume). Jurkat cells also were utilized in separate experiments. The cells were incubated for 16 hours at 37° C. under mammalian cell culture conditions. Two fold serial dilutions for each peptide were prepared and added to the cells (final volume 100 microliters) and incubated for 16 hours at 37° C. For each dilution series control wells containing cells without peptide were included. The metabolic activity and viability of the cells were determined by using a commercially available assay (CellTiter96 assay, Promega Corp.). According to manufacturer's protocol 20 microliters of CellTiter reagent was added to each well and incubated at 37° C. for 1-4 hours. The CellTiter assay is a commercial version of the MTT assay, which measures the conversion of a tetrazolium […] into a colored formazan salt in metabolically active cells. The formation of the formazan product can be measured at 470 nm and is generally accepted as a measure of cellular viability. The cells were incubated at 37° C. and monitored for color development. The conversion of CellTiter reagent was measured at 470 nm using a Versamax plate reader (Molecular Devices). The viability of peptide treated cells is expressed as IC50 (i.e., concentration that leads to a 50% reduction of viability relative to the untreated control). Table 7A reports IC50 values for HeLa cells cultured in OptiMEM or 10% FBS when contacted with peptide compositions from Table 3, and Table 7B reports IC50 values for HeLa cells or Jurkat cells contacted with peptide compositions from Table 3.

E. coli K12 TOP10 = conditions: 3 log or greater reduction in bacterial growth over 16 hours
[2] = system: E. coli K12 55099 (protease neg.); conditions: 3 log or greater reduction in bacterial growth over 16 hours

## CSCC[C@@H](NC(=O)[C@@H](Cc1ccccc1)NC(=O)[C@@H](CC(N)=O)NC(=O)[C@@H](CCCNC(=N)N)NC(=O)[C@@H](CO)NC(=O)[C@@H](Cc1c[nH]c2ccccc12)NC(=O)[C@@H](CC(=O)O)NC(=O)[C@@H](CCCNC(=N)N)NC(=O)[C@@H](Cc1c[nH]c2ccccc12)NC(=O)[C@@H](CCCNC(=N)N)NC(=O)[C@@H](CO)NC(=O)[C@@H](CCCNC(=N)N)NC(=O)CNC(=O)[C@H](NC(=O)[C@@H](CCCNC(=N)N)NC(=O)[C@@H](CO)NC(=O)[C@H](NC(=O)[C@@H](CCCNC(=N)N)NC(=O)[C@H](NC(C)=O)[C@H](C)O)C(C)C)[C@H](C)O)C(=O)N[C@H](CCCNC(=N)N)C(=O)N[C@H](C)C(=O)N[C@H](C)C(N)=O [Peptide 30, Ac-trvsrtgrsrwrdwsrnfmraa-NH2]
S. aureus (Rosenbach)
  Minimum inhibitory concentration (MIC) S. aureus: 8 µM (≈ 22.4 µg/mL)
S. dublin (Lane)
  Minimum inhibitory concentration (MIC) S. dublin: 4 µM (≈ 11.2 µg/mL)
[1]
  Bactericidal activity for indigenous bacteria in human sebum, cfu/ml: 1000 cfu/ml
Jurkat cells
  IC50: > 100 µM
E. coli K12 TOP10
  Minimum inhibitory concentration (MIC) E. coli Top10: 4 µM (≈ 11.2 µg/mL)
[2]
  Minimum inhibitory concentration (MIC) E. coli 55099: 2 µM (≈ 5.59 µg/mL)
